Assay [1] addresses T1, GST-tagged recombinant human full-length TTK protein kinase (Homo sapiens, UniProt P33981).
T1 construct: GST-tagged recombinant human full-length TTK protein kinase; purchased Invitrogen (Life Technologies Ltd., Paisley, U.K.)
T1 sequence (P33981 1-857): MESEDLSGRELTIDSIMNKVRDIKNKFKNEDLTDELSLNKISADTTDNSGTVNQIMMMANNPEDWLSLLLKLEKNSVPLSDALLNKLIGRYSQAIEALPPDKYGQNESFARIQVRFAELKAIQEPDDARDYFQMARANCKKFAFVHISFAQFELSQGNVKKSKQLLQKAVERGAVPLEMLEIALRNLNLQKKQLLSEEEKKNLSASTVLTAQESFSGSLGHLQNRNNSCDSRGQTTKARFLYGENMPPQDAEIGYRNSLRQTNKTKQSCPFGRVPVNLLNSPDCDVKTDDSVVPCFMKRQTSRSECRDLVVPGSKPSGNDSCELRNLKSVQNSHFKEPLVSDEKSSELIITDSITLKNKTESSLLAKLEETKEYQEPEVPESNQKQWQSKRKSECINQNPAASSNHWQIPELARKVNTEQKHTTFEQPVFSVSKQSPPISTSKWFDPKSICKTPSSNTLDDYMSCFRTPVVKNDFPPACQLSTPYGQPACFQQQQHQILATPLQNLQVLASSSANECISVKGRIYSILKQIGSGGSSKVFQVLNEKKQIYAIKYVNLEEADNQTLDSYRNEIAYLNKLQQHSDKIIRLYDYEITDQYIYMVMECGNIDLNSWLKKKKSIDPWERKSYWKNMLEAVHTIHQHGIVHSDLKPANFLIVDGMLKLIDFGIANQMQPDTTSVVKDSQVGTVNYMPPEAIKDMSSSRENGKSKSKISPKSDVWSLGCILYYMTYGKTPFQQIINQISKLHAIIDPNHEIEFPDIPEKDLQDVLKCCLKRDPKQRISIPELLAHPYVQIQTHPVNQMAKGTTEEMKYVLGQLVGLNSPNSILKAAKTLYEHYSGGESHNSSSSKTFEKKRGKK
Kind of assay: TTK mobility shift microfluidics assay, IC50 determination (3 nM TTK). Type of assay: biochemical. The note with it: for LE (ligand efficiency): from TTK IC50; for IC50: 3 nM TTK, 10 μM ATP, duplicate on the same plate.

The target of assay [2] is T1, GST-tagged recombinant human full-length TTK protein kinase. Kind of assay: TTK mobility shift microfluidics assay, single-concentration percent inhibition screen. Type of assay: biochemical. As to conditions: 12.5 nM TTK, 10 μM ATP, mean of duplicate ± SD; for inhibition at 40 µM: compound at 40 μM, 1% DMSO; for inhibition at 400 µM: compound at 400 μM (fragment-like, MW < 300 Da). On the procedure:
The TTK kinase activity was measured in a mobility shift microfluidics assay with the Caliper LabChip EZReader II (Caliper Life Sciences, Hopkinton, MA, U.S.A.). For the initial percent inhibition compound screen, all compounds were tested at 40 μM, and fragment-like compounds (MW < 300 Da) were also tested at 400 μM. A 2.14 μM stock of GST-tagged recombinant human full-length TTK protein kinase from Invitrogen (Invitrogen, Life Technologies Ltd., Paisley, U.K.) and custom synthesized peptide from Pepceuticals (Pepceuticals Ltd., Enderby, U.K.) with sequence 5-FAM-[…]-amide were used. […] For every 10 mL of stock buffer, one Roche EDTA free complete mini-protease inhibitor cocktail tablet (Roche, Basel, Switzerland) was added. TTK was used at a final concentration of 12.5 nM. The assay plate was sealed and incubated at room temperature for 60 min. The assay was stopped by addition of stop buffer which contained 100 mM HEPES (pH 7.3), 20 mM EDTA, and 0.05% (v/v) Brij-35. The assay plate was then analyzed using the EZReader II. Z′ for compounds at 40 μM was 0.48, and Z′ for compounds at 400 μM was 0.61.

Consider 18 compounds from PMC3665241, “Scaffold-Focused Virtual Screening: Prospective Application to the Discovery of TTK Inhibitors” (Journal of Chemical Information and Modeling, 2013).

What is called inhibition is the drop in the measured response relative to a control, in per cent. For orientation: IC50 means the midpoint of a concentration-inhibition curve.

Bounds are passed on as bounds.

With `c1cc2cnc3sccc3c2cn1` [Compound 3, Thieno[2,3-c][2,6]naphthyridine], in assay [1], the “LE (ligand efficiency)” value amounted to 0.45. Also, in assay [2], the inhibition at 40 µM is 70% and the inhibition at 400 µM turned out to be 105.5 ± 0.71%.
Taken in the same sequence, the figures for `c1ccc2c(c1)[nH]c1cncnc12` [Compound 4, 5H-pyrimido[5,4-b]indole] were 0.44, 42.5 ± 0.71% and 63 ± 2.83%.
Take `c1cc2cnc3ccsc3c2cn1` [Compound 5, thieno[3,2-c][2,6]naphthyridine]: in assay [1], the “LE (ligand efficiency)” value was found to be 0.44. In addition, in assay [2], the inhibition at 40 µM was 46 ± 1.41% and the inhibition at 400 µM amounted to 65 ± 2.83%.
On the same counts, the results for `c1cc2c(cn1)cnc1sccc12` [Compound 7, thieno[2,3-c][2,7]naphthyridine] are 0.42, 51 ± 1.41% and 94.5 ± 2.12%.
As to `N#Cc1ccccc1NC(=O)Cn1ncc2c1-c1ccccc1OC2` [Compound 10], the inhibition at 40 µM in assay [2] was 53.5 ± 0.71%.
As for `COc1ccc(Nc2ncnc3sc(-c4ccccc4)cc23)cc1OC` [Compound 11], the IC50 in assay [1] (1% DMSO) was found to be 2.1 µM. The “LE (ligand efficiency)” value in assay [1] was found to be 0.30. Further, the inhibition at 40 µM in assay [2] came out at 64 ± 1.41%.
Taken in the same sequence, the figures for `COc1ccc(C(=O)c2oc3cc(NC(C)=O)ccc3c2C)cc1OC` [Compound 12] were 4.2 µM, 0.28 and 68.5 ± 2.12%.
`COc1ccc(Nc2nc(N)nc3nc[nH]c23)cc1OC` [Compound 13]: the IC50 in assay [1] (1% DMSO) was determined as 7.7 µM. In addition, the “LE (ligand efficiency)” value in assay [1] was 0.33. For the same compound, in assay [2], the inhibition at 40 µM worked out at 72 ± 1.41% and the inhibition at 400 µM was 86 ± 0.41%.
Regarding `COc1ccc(Nc2cc(-c3ccccc3)ncn2)cc1OC` [Compound 14], the IC50 in assay [1] (1% DMSO) worked out at 9.9 µM. The “LE (ligand efficiency)” value in assay [1] is listed as 0.30. Further, the inhibition at 40 µM in assay [2] was 68.5 ± 0.71%.
On to `COc1ccc(Nc2cc(C)nc(SC)n2)cc1OC` [Compound 15], for which, in assay [1] (1% DMSO), the IC50 stood at 19.6 µM. Further, the “LE (ligand efficiency)” value in assay [1] was 0.32. Moreover, in assay [2], the inhibition at 40 µM amounted to 57.5 ± 2.12% and the inhibition at 400 µM came to 75.5 ± 0.71%.
On the same counts, the results for `COc1ccc(Nc2ncnc3c2cnn3C)cc1OC` [Compound 16] are 19.3 µM, 0.31, 45.5 ± 2.12% and 82.5 ± 0.71%.
Take `COc1ccc(Nc2ncnc3[nH]ncc23)cc1OC` [Compound 17]: the concentration for half-maximal inhibition (IC50) in assay [1] (1% DMSO) was found to be 33.3 µM. Further, the “LE (ligand efficiency)” value in assay [1] turned out to be 0.31. Besides, in assay [2], the inhibition at 40 µM came out at 69% and the inhibition at 400 µM was found to be 67%.
On the same counts, the results for `COc1ccc(Nc2ncnc3nc[nH]c23)cc1OC` [Compound 18] are 40.9 µM, 0.30, 34 ± 2.83% and 67 ± 0.41%.
On the same counts, the results for `COc1ccc(Nc2cc(Cl)nc(N)n2)cc1OC` [Compound 19] are 56.2 µM, 0.30, 65.5 ± 0.71% and 96.5 ± 0.71%.
Turning to `COc1ccc(Nc2ccc3nnnn3n2)cc1OC` [Compound 20], the IC50 in assay [1] (10% DMSO (asterisk)) was 78.6 µM. For the same compound, the “LE (ligand efficiency)” value in assay [1] is 0.28. In assay [2], the inhibition at 40 µM was 71.5 ± 0.71% and the inhibition at 400 µM was 24.5 ± 2.12%.
In the case of `COc1ccc(Nc2ccc3nnc(C(F)(F)F)n3n2)cc1OC` [Compound 21], the IC50 in assay [1] (10% DMSO (asterisk)) is 90.1 µM. In addition, the “LE (ligand efficiency)” value in assay [1] is 0.23. In assay [2], the inhibition at 40 µM worked out at 59 ± 2.83%.
Turning to `COc1ccc(Nc2nc(Nc3ccc(OC)c(OC)c3)c3[nH]cnc3n2)cc1OC` [Compound 22], the IC50 in assay [1] (1% DMSO) is below 0.025 µM. Moreover, the inhibition at 40 µM in assay [2] was 71.5 ± 2.12%.
Consider `COc1ccc(NC(=O)c2nc[nH]n2)cc1OC` [Compound 23], for which, in assay [1] (1% DMSO), the 50% inhibitory concentration (IC50) is above 1000 µM. Further, in assay [2], the inhibition at 40 µM is 23 ± 4.24% and the inhibition at 400 µM was 51 ± 1.41%.
